Laboratory results published in the supplement of paper PMC11562712.

Assay: first-order primary biodegradation rate constant k (sorption-corrected, fDis-corrected) (d-1); higher = faster biodegradation
Description: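 Modified OECD 309 water-sediment test. River water plus sieved sediment (50 g wet solid/L) from European river segments (DE, CH, ES, EL) was spiked with a mixture of 129 compounds at 1 ug/L each and incubated in the dark at river temperature for 10 days. The water phase was analysed by UHPLC-Orbitrap-MS. The first-order primary biodegradation rate constant k (d-1) is k_observed, corrected for dissipation in sterile sorption controls and divided by the dissolved fraction fDis; it was fitted over 3 replicate incubations. Invalid fits (p > 0.05, n < 5, not available, concentration increase) are excluded.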

[1] = river segment: Germany (DE) H_Contam, incubation temperature 24 °C
[2] = river segment: Germany (DE) T_Contam, incubation temperature 24 °C
[3] = river segment: Greece (EL) A_Contam, incubation temperature 19 °C
[4] = river segment: Greece (EL) G_Contam, incubation temperature 19 °C
[5] = river segment: Greece (EL) L_Contam, incubation temperature 19 °C
[6] = river segment: Spain (ES) L_Contam, incubation temperature 24 °C
[7] = river segment: Switzerland (CH) R_Contam, incubation temperature 17 °C
[8] = river segment: Germany (DE) T_Pris, incubation temperature 24 °C
[9] = river segment: Greece (EL) G_Pris, incubation temperature 19 °C
[10] = river segment: Spain (ES) B_Contam, incubation temperature 24 °C
[11] = river segment: Spain (ES) C_Contam, incubation temperature 24 °C
[12] = river segment: Spain (ES) F_Pris_Salt, incubation temperature 24 °C
[13] = river segment: Switzerland (CH) C_Contam, incubation temperature 17 °C
[14] = river segment: Switzerland (CH) U_Contam, incubation temperature 17 °C
[15] = river segment: Switzerland (CH) U_Pris, incubation temperature 17 °C

| SMILES | first-order primary biodegradation rate constant k [1] | first-order primary biodegradation rate constant k [2] | first-order primary biodegradation rate constant k [3] | first-order primary biodegradation rate constant k [4] | first-order primary biodegradation rate constant k [5] | first-order primary biodegradation rate constant k [6] | first-order primary biodegradation rate constant k [7] | first-order primary biodegradation rate constant k [8] | first-order primary biodegradation rate constant k [9] | first-order primary biodegradation rate constant k [10] | first-order primary biodegradation rate constant k [11] | first-order primary biodegradation rate constant k [12] | first-order primary biodegradation rate constant k [13] | first-order primary biodegradation rate constant k [14] | first-order primary biodegradation rate constant k [15] |
| --- | --- | --- | --- | --- | --- | --- | --- | --- | --- | --- | --- | --- | --- | --- | --- |
| Cc1cc(NS(=O)(=O)c2ccc(N)cc2)no1 [Sulfamethoxazole] | 0.0889 | 0.143 | 0.0196 | 0.0964 | 0.063 | 1.1 |  |  |  |  |  |  |  |  |  |
| NC(=O)c1cccnc1 [Nicotinamide] |  |  | 0.821 |  |  |  | 0.0625 |  |  |  |  |  |  |  |  |
| CNC(=C[N+](=O)[O-])NCCSCc1ccc(CN(C)C)o1 [Ranitidine] | 0.498 | 28.6 | 6.6 | 1.42 | 3.75 | 3.75 | 0.559 | 17.5 | 28.8 | 1.57 | 0.0642 | 0.103 | 0.639 | 0.756 | 0.596 |
| O=S(=O)(O)NC1CCCCC1 [Cyclamate] | 0.0317 | 0.223 | 0.826 |  | 0.0837 | 1.66 | 0.379 | 0.0464 |  |  | 0.261 | 0.0914 | 0.205 | 0.24 | 0.0988 |
| CN(C)CCCC1(c2ccc(F)cc2)OCc2cc(C#N)ccc21 (stereo unspecified) [Citalopram] | 0.00417 | 4.92 |  | 8.04 | 19.9 |  | 0.288 |  |  | 0.279 | 0.06 |  | 0.0178 | 0.0832 | 0.185 |
| CN(C)C(=O)Nc1ccc(Cl)c(Cl)c1 [Diuron] | 0.127 | 0.147 | 0.283 | 0.119 | 0.166 | 0.0944 |  | 0.044 | 0.286 |  |  |  |  | 0.0756 | 0.0899 |
| CC(C(=O)O)c1cccc(C(=O)c2ccccc2)c1 (stereo unspecified) [Ketoprofen] | 0.108 | 0.441 | 0.537 | 0.0301 | 0.285 | 0.368 | 0.829 | 0.226 | 0.36 | 0.235 | 0.269 | 0.0247 | 1.07 | 1.21 | 2.62 |
| COCCc1ccc(OCC(O)CNC(C)C)cc1 (stereo unspecified) [Metoprolol] | 0.297 | 0.215 | 0.291 | 0.171 | 0.42 | 0.252 | 0.263 | 0.165 | 0.258 | 0.253 | 0.218 | 0.241 | 0.177 | 0.332 | 0.606 |
| O=C(NCC1CCCCN1)c1cc(OCC(F)(F)F)ccc1OCC(F)(F)F (stereo unspecified) [Flecainide] |  | 0.116 | 0.228 | 0.0658 | 0.0674 | 0.0814 |  | 0.0199 |  |  | 1.31 |  |  |  |  |
| COc1ccc2cc([C@H](C)C(=O)O)ccc2c1 [Naproxen] |  | 0.145 | 0.115 | 0.0195 | 0.0444 | 0.413 | 0.141 | 0.00509 | 0.102 | 0.76 | 0.248 | 0.076 |  | 0.0814 |  |
| COCC(C)N(C(=O)CCl)c1c(C)csc1C (stereo unspecified) [Dimethenamid] |  | 0.036 | 0.0238 |  | 0.014 | 0.0244 | 0.0163 |  |  |  |  |  |  | 0.0318 | 0.0152 |
| CC(C)(C#N)c1cc(Cn2cncn2)cc(C(C)(C)C#N)c1 [Anastrozole] |  | 0.0241 |  | 0.658 | 0.113 |  |  | 0.0157 | 0.133 |  |  |  |  | 0.00582 |  |
| N#Cc1cc(Br)c(O)c(Br)c1 [Bromoxynil] |  | 0.133 |  |  | 0.0249 | 0.0939 |  |  |  |  |  |  |  |  | 0.0852 |
| CCOc1ccccc1OCCN[C@H](C)Cc1ccc(OC)c(S(N)(=O)=O)c1 [Tamsulosin] | 0.0512 |  | 0.786 | 1.15 |  | 0.41 | 0.0781 | 0.204 |  | 0.121 | 0.261 |  | 0.0347 | 0.0824 | 0.0624 |
| CC(C)NCC(O)COc1ccc(CC(N)=O)cc1 (stereo unspecified) [Atenolol] | 0.299 | 0.901 | 0.39 | 0.342 | 0.665 | 0.568 | 0.395 | 0.3 | 0.147 | 2.88 |  | 0.0637 | 0.114 | 0.508 | 0.447 |
